The values that follow come from the METLIN SMRT retention time set (Domingo-Almenara et al. 2019).

A short description of this data set: gradient 5% acetonitrile 3 min, to 50% in 2 min, to 85% in 15 min, held 3 min, 100 µL/min. Conditions: column: Zorbax Extend-C18 2.1 x 50 mm; eluents: water / acetonitrile, 0.1% formic acid. The gist of the method: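 The mobile phases were water and acetonitrile, each with 0.1% formic acid, pumped at 100 μL/min through a Zorbax Extend-C18 column (2.1 × 50 mm, 1.8 μm). Pure standards were injected as mixtures of ~100 molecules and detected by a quadrupole time-of-flight mass spectrometer in positive and negative ionization mode. Retention time came from computationally picked adduct peaks, each inspected by hand.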
`Cc1nnc(N2CCCC(C(=O)NCCCc3ccccc3)C2)c2nn(-c3ccccc3)c(C)c12` (configuration not stated): the RP-LC retention time was found to be 762 s. As for `Cc1nnc(N2CCC(C(=O)NCCc3c[nH]c4ccccc34)CC2)c2nn(-c3ccccc3)c(C)c12`, the RP-LC retention time came out at 730 s. With `O=C(NCC1CCCO1)c1nnc(-c2ccc(S(=O)(=O)N3CCCCC3)cc2)o1` (configuration not stated), the RP-LC retention time was 797 s.

`CCC(=O)Oc1cccc(N2C(=O)c3cccc([N+](=O)[O-])c3C2=O)c1` displayed an RP-LC retention time of 845 s.

`Cc1ccc(-c2nc(C3CCN(S(=O)(=O)c4ccc5c(c4)CCC5)CC3)no2)cc1` yielded an RP-LC retention time of 1310 s.

`CN(CC(=O)NC1CCCC1)S(=O)(=O)c1ccc2nc(-c3ccccc3)[nH]c2c1`: the RP-LC retention time is 754 s. For `O=C(Nc1ccc2c(c1)OCCO2)c1nn(CC2CC2)c2c1CNCC2`, the RP-LC retention time worked out at 568 s. Regarding `COc1ccccc1-c1noc(CCn2nc(-c3ccc4c(c3)OCO4)ccc2=O)n1`, the RP-LC retention time is 802 s. `COc1ccc(S(=O)(=O)Nc2cc(-c3cn4ccc(C)cc4n3)ccc2C)cc1OC` registered an RP-LC retention time of 652 s. The value for `Cc1cc2c(c(=O)n(-c3ccccc3)c(=O)n2CC(=O)N(C)c2ccccc2)n1C` was 806 s; that for `Cc1[nH]c(C)c(S(=O)(=O)N2CCC(C(=O)Nc3ccc(Cl)cc3)CC2)c1C(=O)N1CCCC1` was 788 s; that for `CSc1cccc(NC(=O)CN2C(=O)C3CCCCN3c3ccc(C(=O)N4CCCC4)cc32)c1` (configuration not stated) was 869 s.

`Cc1ccc(C(=O)NCc2nn(C)c3ccccc23)cc1` returned an RP-LC retention time of 810 s. Take `CCn1ccc(C(=O)N2CCCn3cc(-c4cccc(C#N)c4)nc32)n1`: the RP-LC retention time turned out to be 639 s. Regarding `O=C(CC(c1ccccc1)c1ccccc1)N(Cc1ccsc1)Cc1ccccn1`, the RP-LC retention time came to 857 s. `Cc1ccn2c(NC(=O)c3ccc(C)c(C)c3)c(-c3ccc(F)cc3)nc2c1` yielded an RP-LC retention time of 737 s. As to `Clc1ccc(C(OCCN2CCCCC2)c2ccccc2)cc1` (configuration not stated), the RP-LC retention time was 850 s. As for `CCOC(=O)c1ccc(NC(=O)N2CCCC2c2cc(C)no2)cc1` (configuration not stated), the RP-LC retention time amounted to 809 s. In turn, `O=C1CS(=O)C2(CCN(S(=O)(=O)Cc3ccccc3)CC2)N1CC1CC1` (configuration not stated) yielded an RP-LC retention time of 713 s.

`COc1ccc(NC(=O)NC(C)C(=O)N2CCc3ccccc32)c(OC)c1` (configuration not stated) yielded an RP-LC retention time of 859 s. In the case of `COc1ccc(-n2c(=O)n(C)c(=O)c3cc(C(=O)NCc4ccccn4)cnc32)cc1` it was 600 s. In the case of `COc1ccc(-c2noc(Cn3nc(-c4ccccc4)ccc3=O)n2)cc1OC`, the RP-LC retention time was 900 s. The value for `CCc1cc(=O)n(CC(=O)Nc2ccc(OC)c(F)c2)c(N)n1` was 788 s; that for `Cc1nc2ccc(NC(=O)Cc3ccc4c(c3)OCO4)cc2s1` was 716 s; that for `Cc1oc(C2CCN(C(=O)c3cc4ccccc4[nH]3)CC2)nc1C(=O)N1CCSCC1` was 847 s.

`COc1ccc(NC(=O)N2CCc3c(c(=O)c4cc(C)cc(C)c4n3C)C2)cc1OC` gave an RP-LC retention time of 628 s. In the case of `N#Cc1ccccc1NC(=O)CSc1cc(N2CCN(c3ccccc3F)CC2)ncn1`, the RP-LC retention time came out at 1120 s. `COc1ccc(Cn2c(=O)c3sccc3n(Cc3nc(-c4cccc(OC)c4)no3)c2=O)cc1` registered an RP-LC retention time of 962 s. `Cc1cc(Nc2ccc(F)cc2)nc2nn(Cc3cc(=O)n4ccccc4n3)c(=O)n12` gave an RP-LC retention time of 836 s.

`CN1C(=O)CCC2(CNC(=O)NCCc3ccccc3)CCCC=C12` (configuration not stated) returned an RP-LC retention time of 763 s. In the case of `O=C(NCC1CCN(C(=O)Nc2ccc(F)cc2)CC1)c1ccccc1Cl` it was 713 s; in that of `COCCNC(=O)C(=O)NCC1(c2ccc(F)cc2)CCOCC1`, 676 s.
